According to publication PMC10287695, “Non-covalent inhibitors of thioredoxin glutathione reductase with schistosomicidal activity in vivo” (Nature Communications, 2023):

Assays:
Format in all cases: biochemical
[1] = biological target: T1, S. mansoni TGR (Schistosoma mansoni, UniProt Q962Y6); experiment: S. mansoni TGR enzyme inhibition (DTNB reduction); settings: 15 minutes pre-incubation
T1 construct: made in house
T1 sequence (Q962Y6 1-598): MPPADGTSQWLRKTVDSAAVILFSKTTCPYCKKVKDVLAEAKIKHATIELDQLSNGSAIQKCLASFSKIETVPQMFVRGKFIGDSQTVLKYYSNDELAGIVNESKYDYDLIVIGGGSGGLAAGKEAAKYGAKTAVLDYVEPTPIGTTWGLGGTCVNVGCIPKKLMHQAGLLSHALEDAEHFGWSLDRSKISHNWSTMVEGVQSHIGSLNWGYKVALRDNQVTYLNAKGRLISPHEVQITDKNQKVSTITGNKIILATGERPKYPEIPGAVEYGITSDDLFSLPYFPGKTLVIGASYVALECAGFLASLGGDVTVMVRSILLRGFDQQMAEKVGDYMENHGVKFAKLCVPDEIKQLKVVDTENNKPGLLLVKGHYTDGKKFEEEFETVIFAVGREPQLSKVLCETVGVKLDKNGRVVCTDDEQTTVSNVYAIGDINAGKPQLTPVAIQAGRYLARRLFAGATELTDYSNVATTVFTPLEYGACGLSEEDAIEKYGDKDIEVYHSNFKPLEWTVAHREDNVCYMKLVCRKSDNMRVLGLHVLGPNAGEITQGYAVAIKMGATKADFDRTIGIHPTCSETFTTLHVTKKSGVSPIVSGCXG
Procedure: (§1) Recombinant TGR, human TrxR1, B. malayi (Bm)TrxR and human GR proteins were expressed and purified as described[20],[69],[79]. The codon optimized sequence for P. falciparum (PfTrxR, https://www.ncbi.nlm.nih.gov/protein/CAA60574.1/) with an N-terminal 6-His tag was synthesized and inserted into pET15b (GenScript) and expressed in BL21 (DE3) cells and purified as described for human GR[20]. TGR and TrxR enzyme inhibition assays were performed in triplicate at 25 °C as described[20] in 0.1 M potassium phosphate (pH 7.4), 10 mM EDTA, 100 µM NADPH and 0.01% Tween-20. […] The reaction was started with addition of an equal volume of DTNB (6 mM) and NADPH (100 µM) and the increase in A412 during the first 3 min was recorded. […] The reaction was preincubated for 15 min. Activity was initiated with the addition of 1 mM GSSG and 100 μM NADPH and initial rates of NADPH oxidation were monitored at 340 nm. The reactions were done in triplicate. The IC50 was calculated in GraphPad Prism.

[2] = biological target: T2, Human TrxR1 (Homo sapiens, UniProt Q16881); experiment: Human TrxR1 enzyme inhibition (DTNB reduction); settings: 15 minutes pre-incubation
T2 construct: made in house
T2 sequence (Q16881 1-499 isoform Q16881-5): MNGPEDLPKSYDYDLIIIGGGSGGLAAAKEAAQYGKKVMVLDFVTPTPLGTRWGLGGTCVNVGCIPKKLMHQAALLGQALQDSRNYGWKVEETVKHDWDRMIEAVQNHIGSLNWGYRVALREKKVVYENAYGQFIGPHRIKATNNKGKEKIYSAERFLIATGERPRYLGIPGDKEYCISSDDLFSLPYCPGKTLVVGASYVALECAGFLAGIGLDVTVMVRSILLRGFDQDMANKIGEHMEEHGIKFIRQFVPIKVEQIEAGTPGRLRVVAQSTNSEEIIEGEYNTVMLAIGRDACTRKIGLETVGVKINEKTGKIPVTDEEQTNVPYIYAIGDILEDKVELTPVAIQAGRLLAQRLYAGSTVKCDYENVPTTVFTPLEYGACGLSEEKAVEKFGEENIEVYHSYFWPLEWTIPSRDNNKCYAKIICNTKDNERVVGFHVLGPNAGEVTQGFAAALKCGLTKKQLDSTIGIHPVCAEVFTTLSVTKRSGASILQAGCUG
Procedure: as §1

[3] = biological target: T3, Human GR (Homo sapiens, UniProt P00390); experiment: Human GR enzyme inhibition (GSSG reduction, NADPH oxidation)
T3 construct: made in house
T3 sequence (P00390 44-522): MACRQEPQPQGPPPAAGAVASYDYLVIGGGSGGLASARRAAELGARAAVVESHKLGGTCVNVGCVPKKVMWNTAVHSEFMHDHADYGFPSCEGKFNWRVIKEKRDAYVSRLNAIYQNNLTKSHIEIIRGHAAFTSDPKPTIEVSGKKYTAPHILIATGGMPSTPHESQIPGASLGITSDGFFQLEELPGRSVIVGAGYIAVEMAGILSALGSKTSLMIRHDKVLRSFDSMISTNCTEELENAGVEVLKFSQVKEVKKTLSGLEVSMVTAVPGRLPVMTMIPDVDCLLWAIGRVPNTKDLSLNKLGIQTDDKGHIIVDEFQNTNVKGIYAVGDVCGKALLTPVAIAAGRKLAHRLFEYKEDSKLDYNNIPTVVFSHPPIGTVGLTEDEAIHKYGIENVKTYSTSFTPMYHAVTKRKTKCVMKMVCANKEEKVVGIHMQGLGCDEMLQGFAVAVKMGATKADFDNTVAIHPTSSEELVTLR
Procedure: Recombinant TGR, human TrxR1, B. malayi (Bm)TrxR and human GR proteins were expressed and purified as described[20],[69],[79]. The codon optimized sequence for P. falciparum (PfTrxR, https://www.ncbi.nlm.nih.gov/protein/CAA60574.1/) with an N-terminal 6-His tag was synthesized and inserted into pET15b (GenScript) and expressed in BL21 (DE3) cells and purified as described for human GR[20]. TGR and TrxR enzyme inhibition assays were performed in triplicate at 25 °C as described[20] in 0.1 M potassium phosphate (pH 7.4), 10 mM EDTA, 100 µM NADPH and 0.01% Tween-20. TGR, human TrxR1 and BmTrxR (all at 4 nM) and PfTrxR (50 nM) were preincubated with the compounds for 15 min. The reaction was started with addition of an equal volume of DTNB (6 mM) and NADPH (100 µM) and the increase in A412 during the first 3 min was recorded. […] […] Activity was initiated with the addition of 1 mM GSSG and 100 μM NADPH and initial rates of NADPH oxidation were monitored at 340 nm. The reactions were done in triplicate. The IC50 was calculated in GraphPad Prism.

Compound: C[C@@H]1[C@H]2C[C@@H](C[C@H]1NC(=O)Cc1nc3ccccc3n1C1CCCCC1)C2(C)C [C10]
- TGR % inhibition ([1]; 1 µM): 1.833%
- TGR % inhibition ([1]; 5 µM): 5.968%
- TGR % inhibition ([1]; 15 µM): 42.2698%
- TGR % inhibition ([1]; 30 µM): 76.1929%
- TGR % inhibition ([1]; 66.7 µM): 82.1691%
- hsTrxR % inhibition ([2]; 1 µM): 3.958%
- hsTrxR % inhibition ([2]; 5 µM): 29.0366%
- hsTrxR % inhibition ([2]; 15 µM): 63.1349%
- hsTrxR % inhibition ([2]; 30 µM): 85.1161%
- hsTrxR % inhibition ([2]; 66.7 µM): 92.1898%
- hGR % inhibition ([3]; 15 minutes pre-incubation, 15 µM): -6.32%
- hGR % inhibition ([3]; 15 minutes pre-incubation, 30 µM): -6.329%
- hGR % inhibition ([3]; 15 minutes pre-incubation, 66.7 µM): 1.247%
- hGR % inhibition ([3]; 6 hours pre-incubation, 15 µM): -1.804%
- hGR % inhibition ([3]; 6 hours pre-incubation, 30 µM): -1.476%
- hGR % inhibition ([3]; 6 hours pre-incubation, 66.7 µM): -1.27%
